Source: PubChem BioAssay AID252 (DTP/NCI, 2004)
Where “and” joins values, the source holds several entries; their conditions need not be identical. Equal entries are not always repeated. Inconclusive results and toxic doses are left out.

System: BDF1 mice, intracerebral L1210 leukemia, survival T/C
Assay: NCI In Vivo Anticancer Drug Screen. Data for tumor model L1210 Leukemia (intracerebral) in B6D2F1 (BDF1) mice
Conditions: higher = longer survival
Summary of the method: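 Antitumour effect is judged in mice with transplanted tumour by comparing survival of treated (T) against vehicle-dosed (C) groups as T/C.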

[1] = endpoint: mean survival time, dose: 50.0 mg/kg/injection, schedule: Q01DX Z (ip), vehicle: carboxymethylcellulose (CMC)
[2] = endpoint: mean survival time, dose: 100.0 mg/kg/injection, schedule: Q01DX Z (ip), vehicle: carboxymethylcellulose (CMC)
[3] = endpoint: mean survival time, dose: 440.0 mg/kg/injection, schedule: Q01DX001 (ip), vehicle: carboxymethylcellulose (CMC)
[4] = endpoint: mean survival time, dose: 670.0 mg/kg/injection, schedule: Q01DX001 (ip), vehicle: carboxymethylcellulose (CMC)
[5] = endpoint: mean survival time, dose: 1000.0 mg/kg/injection, schedule: Q01DX001 (ip), vehicle: carboxymethylcellulose (CMC)
[6] = endpoint: mean survival time, dose: 50.0 mg/kg/injection, schedule: Q01DX001 (ip), vehicle: other

O=C1C(NC(=O)C2CCCCC2)=C(N2CC2)C(=O)C(NC(=O)C2CCCCC2)=C1N1CC1
T/C (endpoint: mean survival time, dose: 25.0 mg/kg/injection, schedule: Q01DX009 (ip), vehicle: Klucel (hydroxypropylcellulose) (HPC)): 111 % of control
T/C (endpoint: mean survival time, dose: 50.0 mg/kg/injection, schedule: Q01DX009 (ip), vehicle: Klucel (hydroxypropylcellulose) (HPC)): 101 % of control and 102 % of control and 241 % of control
T/C [1]: 104 % of control
T/C [2]: 103 % of control
T/C (endpoint: mean survival time, dose: 200.0 mg/kg/injection, schedule: Q01DX009 (ip), vehicle: Klucel (hydroxypropylcellulose) (HPC)): 105 % of control and 115 % of control and 119 % of control
T/C (endpoint: mean survival time, dose: 200.0 mg/kg/injection, schedule: Q01DX Z (ip), vehicle: carboxymethylcellulose (CMC)): 103 % of control
T/C (endpoint: mean survival time, dose: 400.0 mg/kg/injection, schedule: Q01DX009 (ip), vehicle: Klucel (hydroxypropylcellulose) (HPC)): 119 % of control and 97 % of control
T/C (endpoint: mean survival time, dose: 400.0 mg/kg/injection, schedule: Q01DX Z (ip), vehicle: carboxymethylcellulose (CMC)): 116 % of control
T/C [3]: 96 % of control and 98 % of control
T/C [4]: 104 % of control and 97 % of control
T/C (endpoint: mean survival time, dose: 800.0 mg/kg/injection, schedule: Q01DX009 (ip), vehicle: Klucel (hydroxypropylcellulose) (HPC)): 104 % of control
T/C [5]: 102 % of control and 103 % of control

OCCOCCN1CCN(CCCN2c3ccccc3Sc3ccc(C(F)(F)F)cc32)CC1
T/C (endpoint: mean survival time, dose: 18.7 mg/kg/injection, schedule: Q04DX003 (ip), vehicle: saline): 106 % of control
T/C (endpoint: mean survival time, dose: 37.5 mg/kg/injection, schedule: Q04DX003 (ip), vehicle: saline): 106 % of control
T/C (endpoint: mean survival time, dose: 75.0 mg/kg/injection, schedule: Q04DX003 (ip), vehicle: saline): 106 % of control

O=NN(CCCl)C(=O)NC1[C@H](O)CCC[C@@H]1O (some centres undefined)
T/C (endpoint: mean survival time, dose: 2.6 mg/kg/injection, schedule: Q01DX001 (ip), vehicle: saline): 123 % of control
T/C (endpoint: mean survival time, dose: 4.0 mg/kg/injection, schedule: Q01DX001 (ip), vehicle: saline): 112 % of control
T/C (endpoint: mean survival time, dose: 9.0 mg/kg/injection, schedule: Q01DX001 (ip), vehicle: saline): 156 % of control
T/C (endpoint: mean survival time, dose: 14.0 mg/kg/injection, schedule: Q01DX001 (ip), vehicle: saline): 388 % of control
T/C (endpoint: mean survival time, dose: 22.0 mg/kg/injection, schedule: Q01DX001 (ip), vehicle: saline): 324 % of control

CN(N=O)C(=O)NCCCCCNC(=O)N(C)N=O
T/C (endpoint: mean survival time, dose: 210.0 mg/kg/injection, schedule: Q01DX001 (ip), vehicle: carboxymethylcellulose (CMC)): 113 % of control
T/C (endpoint: mean survival time, dose: 420.0 mg/kg/injection, schedule: Q01DX001 (ip), vehicle: carboxymethylcellulose (CMC)): 123 % of control

CN=NNc1nc[nH]c1C(N)=O
T/C (endpoint: mean survival time, dose: 12.5 mg/kg/injection, schedule: Q01DX Z (ip), vehicle: carboxymethylcellulose (CMC)): 102 % of control
T/C (endpoint: mean survival time, dose: 25.0 mg/kg/injection, schedule: Q01DX Z (ip), vehicle: carboxymethylcellulose (CMC)): 114 % of control
T/C [1]: 111 % of control
T/C [2]: 87 % of control

CC(=O)OCC1OC(n2cnc3c(=S)nc(N)[nH]c32)C(OC(C)=O)C1OC(C)=O (centres undefined)
T/C (endpoint: mean survival time, dose: 37.5 mg/kg/injection, schedule: Q01DX Z (ip), vehicle: other): 122 % of control

O=NN(CCF)C(=O)NC1CCC(NC(=O)N(CCF)N=O)CC1 (centres undefined)
T/C (endpoint: mean survival time, dose: 10.0 mg/kg/injection, schedule: Q01DX001 (ip), vehicle: other): 110 % of control
T/C (endpoint: mean survival time, dose: 25.0 mg/kg/injection, schedule: Q01DX001 (ip), vehicle: other): 120 % of control
T/C (endpoint: mean survival time, dose: 30.0 mg/kg/injection, schedule: Q01DX001 (ip), vehicle: other): 155 % of control
T/C (endpoint: mean survival time, dose: 40.0 mg/kg/injection, schedule: Q01DX001 (ip), vehicle: other): 193 % of control
T/C [6]: 224 % of control
T/C (endpoint: mean survival time, dose: 60.0 mg/kg/injection, schedule: Q01DX001 (ip), vehicle: other): 202 % of control
T/C (endpoint: mean survival time, dose: 80.0 mg/kg/injection, schedule: Q01DX001 (ip), vehicle: other): 293 % of control and 329 % of control
T/C (endpoint: mean survival time, dose: 110.0 mg/kg/injection, schedule: Q01DX001 (ip), vehicle: other): 294 % of control
T/C (endpoint: mean survival time, dose: 120.0 mg/kg/injection, schedule: Q01DX001 (ip), vehicle: other): 319 % of control and 334 % of control
T/C (endpoint: mean survival time, dose: 180.0 mg/kg/injection, schedule: Q01DX001 (ip), vehicle: other): 277 % of control
T/C (endpoint: mean survival time, dose: 187.0 mg/kg/injection, schedule: Q01DX001 (ip), vehicle: other): 170 % of control
T/C (endpoint: mean survival time, dose: 240.0 mg/kg/injection, schedule: Q01DX001 (ip), vehicle: other): 262 % of control

N#CCCNC(=O)N(CCC#N)N=O
T/C (endpoint: mean survival time, dose: 167.0 mg/kg/injection, schedule: Q01DX001 (ip), vehicle: carboxymethylcellulose (CMC)): 102 % of control
T/C (endpoint: mean survival time, dose: 250.0 mg/kg/injection, schedule: Q01DX001 (ip), vehicle: carboxymethylcellulose (CMC)): 109 % of control

CS(=O)(=O)OCC(O)C(O)COS(C)(=O)=O (centres undefined)
T/C [3]: 92 % of control and 97 % of control
T/C [4]: 101 % of control and 100 % of control
T/C [5]: 102 % of control and 100 % of control

CCOC(N)=O
T/C (endpoint: mean survival time, dose: 1074.0 mg/kg/injection, schedule: Q01DX001 (ip), vehicle: saline): 104 % of control
T/C (endpoint: mean survival time, dose: 1601.0 mg/kg/injection, schedule: Q01DX001 (ip), vehicle: saline): 106 % of control

N[C@H](C(=O)O)[C@H]1ON=C(Cl)[C@@H]1O
T/C (endpoint: mean survival time, dose: 8.0 mg/kg/injection, schedule: Q01DX009 (ip), vehicle: saline): 109 % of control
T/C (endpoint: mean survival time, dose: 16.0 mg/kg/injection, schedule: Q01DX009 (ip), vehicle: saline): 115 % of control
T/C (endpoint: median survival time, dose: 256.0 mg/kg/injection, schedule: Q01DX009 (ip), vehicle: saline): 123 % of control
T/C (endpoint: median survival time, dose: 512.0 mg/kg/injection, schedule: Q01DX009 (ip), vehicle: saline): 111 % of control
T/C (endpoint: median survival time, dose: 1024.0 mg/kg/injection, schedule: Q01DX009 (ip), vehicle: saline): 171 % of control

CC(=O)c1ccc(NC(=O)N(CCCl)N=O)cc1
T/C (endpoint: mean survival time, dose: 37.5 mg/kg/injection, schedule: Q01DX001 (ip), vehicle: carboxymethylcellulose (CMC)): 117 % of control
T/C (endpoint: mean survival time, dose: 50.0 mg/kg/injection, schedule: Q01DX001 (ip), vehicle: carboxymethylcellulose (CMC)): 118 % of control
T/C (endpoint: mean survival time, dose: 75.0 mg/kg/injection, schedule: Q01DX001 (ip), vehicle: carboxymethylcellulose (CMC)): 121 % of control

CN(N=O)C(=O)NCCSc1ncnc2nc[nH]c12
T/C (endpoint: mean survival time, dose: 400.0 mg/kg/injection, schedule: Q01DX001 (ip), vehicle: carboxymethylcellulose (CMC)): 113 % of control
T/C (endpoint: mean survival time, dose: 500.0 mg/kg/injection, schedule: Q01DX001 (ip), vehicle: carboxymethylcellulose (CMC)): 121 % of control

COCCOC1=C(N2CC2)C(=O)C(OCCOC)=C(N2CC2)C1=O
T/C (endpoint: mean survival time, dose: 0.25 mg/kg/injection, schedule: Q01DX009 (ip), vehicle: saline): 98 % of control and 100 % of control
T/C (endpoint: mean survival time, dose: 1.0 mg/kg/injection, schedule: Q01DX009 (ip), vehicle: saline): 105 % of control and 109 % of control
T/C (endpoint: mean survival time, dose: 2.0 mg/kg/injection, schedule: Q01DX009 (ip), vehicle: saline): 104 % of control and 112 % of control and 114 % of control

O=NN(CCCl)C(=O)N[C@@H]1CCCC[C@H]1O
T/C (endpoint: mean survival time, dose: 12.0 mg/kg/injection, schedule: Q01DX001 (ip), vehicle: saline with Tween-80): 350 % of control
T/C (endpoint: mean survival time, dose: 18.0 mg/kg/injection, schedule: Q01DX001 (ip), vehicle: saline with Tween-80): 463 % of control
T/C (endpoint: mean survival time, dose: 26.0 mg/kg/injection, schedule: Q01DX001 (ip), vehicle: saline with Tween-80): 175 % of control

O=NN(CCCl)C(=O)CCCCC(=O)N(CCCl)N=O
T/C (endpoint: mean survival time, dose: 44.0 mg/kg/injection, schedule: Q01DX001 (ip), vehicle: carboxymethylcellulose (CMC)): 95 % of control
T/C (endpoint: mean survival time, dose: 67.0 mg/kg/injection, schedule: Q01DX001 (ip), vehicle: carboxymethylcellulose (CMC)): 96 % of control
T/C (endpoint: mean survival time, dose: 100.0 mg/kg/injection, schedule: Q01DX001 (ip), vehicle: carboxymethylcellulose (CMC)): 94 % of control

O=NN(CCCl)C(=O)NC1CSCSC1
T/C (endpoint: mean survival time, dose: 2.0 mg/kg/injection, schedule: Q01DX001 (ip), vehicle: other): 103 % of control and 98 % of control
T/C (endpoint: mean survival time, dose: 15.0 mg/kg/injection, schedule: Q01DX001 (ip), vehicle: other): 153 % of control and 196 % of control
T/C (endpoint: mean survival time, dose: 22.0 mg/kg/injection, schedule: Q01DX001 (ip), vehicle: other): 360 % of control and 379 % of control
T/C [6]: 89 % of control

COc1cc(NS(C)(=O)=O)ccc1Nc1c2cccc(C)c2nc2c(C)cccc12
T/C (endpoint: mean survival time, dose: 6.25 mg/kg/injection, schedule: Q01DX009 (ip), vehicle: water): 111 % of control
T/C (endpoint: mean survival time, dose: 6.25 mg/kg/injection, schedule: Q01DX009 (sc), vehicle: water): 98 % of control
T/C (endpoint: mean survival time, dose: 12.5 mg/kg/injection, schedule: Q01DX009 (sc), vehicle: water): 101 % of control
T/C (endpoint: mean survival time, dose: 25.0 mg/kg/injection, schedule: Q01DX001 (ip), vehicle: saline): 101 % of control
T/C (endpoint: mean survival time, dose: 25.0 mg/kg/injection, schedule: Q01DX009 (ip), vehicle: water): 114 % of control
T/C (endpoint: mean survival time, dose: 25.0 mg/kg/injection, schedule: Q01DX009 (sc), vehicle: water): 103 % of control
T/C (endpoint: mean survival time, dose: 50.0 mg/kg/injection, schedule: Q01DX001 (ip), vehicle: saline): 107 % of control
T/C (endpoint: mean survival time, dose: 50.0 mg/kg/injection, schedule: Q01DX009 (sc), vehicle: water): 104 % of control
T/C (endpoint: mean survival time, dose: 100.0 mg/kg/injection, schedule: Q01DX001 (ip), vehicle: saline): 110 % of control
T/C (endpoint: mean survival time, dose: 200.0 mg/kg/injection, schedule: Q01DX001 (ip), vehicle: saline): 112 % of control
